Measurements reported in publication PMC10687071 (The Journal of Biological Chemistry, 2023).
Numbering of substitutions follows the chain as printed.

Assays:
[1] = biological target: T1, V83G mutant EAG1 channels (Mus musculus, UniProt Q60603, V83G); experiment: TEVC recording, imipramine inhibition, V83G mutant; type: cell-based; settings: V83G mutant EAG1 channel, +50 mV
T1 construct: expressed in transfected cells; host or cells: Xenopus laevis oocytes injected with cRNA
T1 sequence (Q60603 1-989 V83G): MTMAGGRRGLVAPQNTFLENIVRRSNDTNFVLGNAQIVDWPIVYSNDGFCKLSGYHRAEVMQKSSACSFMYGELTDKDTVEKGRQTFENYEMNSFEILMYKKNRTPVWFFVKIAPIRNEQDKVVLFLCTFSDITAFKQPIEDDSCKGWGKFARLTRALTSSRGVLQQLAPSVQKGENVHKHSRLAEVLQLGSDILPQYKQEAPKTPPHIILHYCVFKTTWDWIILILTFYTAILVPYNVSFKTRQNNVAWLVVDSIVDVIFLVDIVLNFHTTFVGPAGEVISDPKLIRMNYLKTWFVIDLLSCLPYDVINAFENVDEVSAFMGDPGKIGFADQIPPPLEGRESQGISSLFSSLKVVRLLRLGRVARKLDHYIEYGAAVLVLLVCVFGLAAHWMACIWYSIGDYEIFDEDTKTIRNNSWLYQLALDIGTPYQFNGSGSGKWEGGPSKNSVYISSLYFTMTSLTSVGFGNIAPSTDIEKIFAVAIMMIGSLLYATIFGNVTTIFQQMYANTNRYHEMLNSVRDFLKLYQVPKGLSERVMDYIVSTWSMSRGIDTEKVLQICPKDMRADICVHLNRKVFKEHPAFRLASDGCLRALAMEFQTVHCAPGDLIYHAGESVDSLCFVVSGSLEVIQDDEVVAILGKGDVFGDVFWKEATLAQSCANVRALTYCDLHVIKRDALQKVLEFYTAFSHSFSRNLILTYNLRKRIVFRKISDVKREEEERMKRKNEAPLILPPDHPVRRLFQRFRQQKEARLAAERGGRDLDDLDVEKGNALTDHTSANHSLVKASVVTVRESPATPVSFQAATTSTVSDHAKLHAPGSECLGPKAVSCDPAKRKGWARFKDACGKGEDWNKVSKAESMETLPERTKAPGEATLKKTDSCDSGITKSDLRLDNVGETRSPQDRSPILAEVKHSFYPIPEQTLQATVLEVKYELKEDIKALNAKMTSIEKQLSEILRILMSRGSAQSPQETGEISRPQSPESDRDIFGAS
Description: (§1) The cDNA encoding wild-type (WT) mouse EAG1 channels in pGH19 vector was kindly provided by G. Robertson (University of Wisconsin-Madison, Madison, WI). The mutant ΔPAS EAG1 channel in pGH19 with the deletion of the PAS domain residues 2 to 130 was generated by Bio Basic Inc and verified by DNA sequencing (Genewiz). Mutant EAG1 channels with single amino acid substitutions were generated by Genewiz and verified by DNA sequencing. cRNA was transcribed using the T7 mMessage mMachine kit (Thermo Fisher Scientific). Defolliculated Xenopus laevis oocytes were purchased from Ecocyte Bioscience or Xenopus1 and injected with the cRNA using a Nanoinject II oocyte injector (Drummond).
(§2) For EAG1 current recordings, oocytes were placed into a handmade chamber containing a bath solution for the current recording. The currents were recorded using a TEVC technique with OC-725C amplifier (Warner Instruments) and pClamp11 software (Molecular Devices). The signals were digitized using Digidata 1550 (Molecular Devices). Patch pipettes were pulled from borosilicate glass and had resistances of 0.7 to 1.5 MΩ. The recording (bath) solution contained 96 mM NaCl, 4 mM KCl, 0.1 mM CaCl2, 1.8 mM MgCl2, and 5 mM HEPES, pH 7.5. The pipette solution contained 3 M KCl. […]

[2] = biological target: T2, D39G/R84G mutant EAG1 channels (Mus musculus, UniProt Q60603, D39G/R84G); experiment: TEVC recording, imipramine inhibition, D39G/R84G double mutant; type: cell-based; settings: D39G/R84G mutant EAG1 channel, +50 mV
T2 construct: expressed in transfected cells; host or cells: Xenopus laevis oocytes injected with cRNA
T2 sequence (Q60603 1-989 D39G/R84G): T1 sequence (Q60603 1-989 V83G) with D39G, G83V, R84G
Description: as §1, §2

CN(C)CCCN1c2ccccc2CCc2ccccc21 [imipramine]
IC50 [1]: 44.3 ± 2.6 µM | IC50 [2]: 142 ± 28.5 µM
